For two compounds, Activity and MBC results are on record in ChEMBL document CHEMBL6120994, “Unravelling the potential of natural chelating agents in the control of Staphylococcus aureus and Pseudomonas aeruginosa biofilms” (Eur J Med Chem, 2025).

Common to all, as to format: functional
In one assay the test system is Escherichia coli. Briefly: Antibacterial activity against Escherichia coli BNCC133721 assessed as inhibition of bacterial growth measured after 24 hrs by broth microdilution method. On the technique in general: Broth dilution looks for growth in wells or tubes with falling amounts of substance.
The subject of a further assay is HepG2. As to the kind of experiment: Protection against iron(III)-induced cytotoxicity in human HepG2 cells assessed as cell mass at 250 to 750 ug/ml measured after 24 hrs by SRB binding assay (reference value: 56.2 +/-5.4%). Conditions: dose 250-750 µg/ml, at 250 to 750 µg/mL. Background: In SRB staining, fixed cells bind dye roughly in proportion to their protein.

For a further assay, the system named is Pseudomonas aeruginosa. As to the kind of experiment: Antibiotic adjuvant activity against Pseudomonas aeruginosa ATCC 10145 assessed as ciprofloxacin MBC at 15.6 ug/ml measured after 24 hrs in presence of ciprofloxacin by checkerboard assay (reference value: 32 ug/ml). Conditions: dose 15.6 µg/ml.
The subject of the next assay is Staphylococcus aureus. Briefly: Antibiotic adjuvant activity against preestablished 24 hr-old Staphylococcus aureus CECT 976 assessed as potentiation of tobramycin-induced antibiofilm activity by measuring log reduction of CFU of biofilm cells at 10000 ug/ml in presence of 1/4XMIC to MIC tobramycin measured after 24 hrs by visual counting method. Conditions: dose 10000 µg/ml.

As for `O=c1cc(CO)occ1O` [KOJIC ACID], the Activity with Escherichia coli was greater than 1000 µg/mL; in the assay on HepG2 it was greater than 61.8%.
Turning to `Cc1occc(=O)c1O` [MALTOL], in the assay with Pseudomonas aeruginosa, the minimal bactericidal concentration (MBC) came to 32 µg/mL. In addition, in the assay on Staphylococcus aureus, the Activity stood at 2 log10CFU/cm^-2.

For orientation: MBC means the lowest tested concentration that kills the bacteria rather than only halting them.
